# Test results published in publication PMC11134608, “UBR5 forms ligand-dependent complexes on chromatin to regulate nuclear hormone receptor stability” (Molecular cell, 2023).
# Like-named read-outs stand apart in the source and are kept apart here.
# How the values were obtained:
# [1] = tested on: UBR5-RARA; test: In vitro FLAG-UBR5 pull-down of His-tagged RARA; assay type: binding, human; conditions: 50 μM ligand, anti-His western, 25 mM HEPES pH 7.4, 125 mM NaCl, 0.05% TWEEN-20
# Procedure: 12 μL of FLAG M2 slurry were equilibrated with binding buffer (25 mM HEPES pH 7.4, 125 mM NaCl, 0.05% TWEEN-20). The resin was pelleted and excess buffer removed. 60 μL of fresh binding buffer was re-added, followed by addition of 15 pmol (2.5 μL ofa6 μM solution) of purified FLAG-UBR5 protein and incubated on a rotating wheel at 4°C for 60–90 minutes. The resin was pelleted, excess buffer removed, and 150 μL fresh binding buffer (supplemented with 50 μM ligand of interest or DMSO) added, followed by 150 pmol protein (binding partner protein of interest) and incubated for another 60 minutes. The resin was pelleted, excess buffer removed and washed with 400 μL of binding buffer (supplemented with ligand of interest or DMSO), and this process was repeated three times. The resin was pelleted, excess buffer removed and 45 μL of binding buffer supplemented with 1 mg/mL 3xFLAG peptide was added to elute proteins over 30 minutes on a rotating wheel at room temperature. The resin was pelleted, and 40 μL of the supernatant was collected and mixed with 12 μL of 5xSDS gel loading buffer. 6 μL of these samples were applied to SDS-PAGE on a 4–20% gradient gel (Biorad). The gel was transferred to a nitrocellulose membrane using the Trans-Blot Turbo Transfer System (Biorad). Following blocking with 5% skim milk solution in TBST, primary antibodies targeting the NR proteins were added in TBST and incubated overnight at 4 °C. The following day, membranes were washed thrice with TBST buffer and incubated for 45 minutes with fluorescent secondary antibody (Invitrogen A11357), followed by three more washes with TBST. Imaging was performed on a Licor Odyssey system, scanned at 800 nm.
# [2] = tested on: ER reporter (E3 ligase dependence); test: Targeted CRISPR screens, ER reporter K562 cells: E3 ligase used; assay type: cell-based, human; conditions: for E3 ligase used for ER degradation: K562 ER reporter, CRISPR screen; for E3 Ligase (Table S2): Supplemental Table S2
# Procedure: To characterize the UPS pathway components involved in SERD-induced ER degradation, we performed CRISPR screens with our ER reporter in the presence multiple SERDs: fulvestrant, GDC-0927, elacestrant, giredestrant, camizestrant, amcenestrant, AZD-9496, brilanestrant, and LSZ-102. […] Taken together, these findings indicate that different classes of SERDs engage distinct ubiquitin ligases and degradation pathways to target ER.
# The UPS and tiling CRISPR functional genomics screen was performed following previously described methods.[22] Briefly, the UPS CRISPR library targets 713 E1, E2, E3 ubiquitin ligases, and deubiquitinases and includes controls genes with a total of 2852 guide RNAs, cloned into the pXPR003 backbone. The UBR5 Tiling screen was created by CRISPR-SURF.[29] Viruses were produced in a T-175 format and ten percent by volume of the library virus was added to reporter cell lines in triplicates for transduction. Transduced cells were allowed to recover and expand for nine days, then treated with indicated ligand. Top and bottom 5% of cells by GFP signal were sorted for a total of at least 100,000 cells per replicate. Samples were processed as previously described.[22]
# Reporter cell lines were treated with ATRA or 9-cis RA, and then sorted into four populations by eGFP/mCherry fluorescence ratios (Gates A-D), corresponding to the bottom and top 5–10% respectively (Figure S1D).[22],[23] Sorted cells were pelleted, lysed, and processed according to previous studies.[22] Briefly sgRNAs were amplified in two PCRs via Titanium Taq (Takara Bio 639210), Titanium Taq Buffer and 800uM dNTP mix and eight staggered forward primers. The first PCR also contained 200 nM SBS3-Stagger-pXPR003 forward primer and 200 nM SBS12-pXPR003 reverse primer (cycles: 5 minutes at 94°C, 15 × (30 sec at 94°C, 15 sec at 58°C, 30 sec at 72°C), 2 minutes at 72°C). Illumina adapters and barcodes were added in the second PCR (200 nM P5-SBS3 forward primer, 200 nM P7-barcode-SBS12 reverse primer). Samples were pooled and purified by agarose gel-electrophoresis (Qiagen) and NaOAc/isopropanol precipitation. Amplified guides were quantified by next-generation sequencing (Genomics Platform, Broad Institute), and analyzed for enrichment in Gate A over Gate D, representing degradation rescue.
# [3] = tested on: ER reporter; test: ER reporter degradation; assay type: cell-based, human; conditions: 1 μM (legend, SERDs)
# Procedure: Reporter cell lines were seeded in triplicate at a density of 1 million cells/ml in 100 μl per well in a 96 well plate and measured once. Ligand was added by Digital Dispenser (Tecan), and incubated at 37°C for the appropriate time before reading by flow cytometry. Cells were analyzed for GFP vs mCherry expression. GFP expression was normalized to mCherry signal and ligand treatments were compared to DMSO controls.
# [4] = tested on: ER; test: ER degradation after RNF111 or UBR5 knockdown (reporter K562; T47D western); assay type: cell-based, human; conditions: K562 ER-GFP, shUBR5 / sgRNF111, Figure S8C, D
# Procedure: (§1) Cells were analyzed for GFP vs mCherry expression.
# Protein concentration was quantified via Pierce BCA Protein Assay Kit (ThermoFisher, 23225), and equal amounts of lysates were run on either SDS-PAGE 3–8% Tris-Acetate or 4–12% Bis-Tris Protein Gels (NuPAGE, ThermoFisher), then transferred to a PVDF membrane (Biorad, Wet Transfer System). Membranes were blocked for 30 minutes to 1 hour at room temperature in Odyssey Blocking Buffer/PBS (LI-COR Biosciences), and incubated with primary antibodies at 4 °C overnight. Stained membranes were washed three times in Tris-buffered saline with Tween 20 (TBS-T) and incubated for 1 hour at room temperature with secondary IRDye-conjugated antibodies (LI-COR Biosciences). Membranes were washed three times in TBS-T before imaging (Odyssey Imaging System, LI-COR Biosciences).
# [5] = tested on: UBR5-RARA/RXRA; test: In vitro FLAG-UBR5 pull-down of His-tagged RARA/RXRA heterodimer; assay type: binding, human; conditions: 50 μM ligand, pull-down, anti-His western; 25 mM HEPES pH 7.4, 125 mM NaCl, 0.05% TWEEN-20
# Procedure: The resin was pelleted and excess buffer removed. 60 μL of fresh binding buffer was re-added, followed by addition of 15 pmol (2.5 μL ofa6 μM solution) of purified FLAG-UBR5 protein and incubated on a rotating wheel at 4°C for 60–90 minutes. The resin was pelleted, excess buffer removed, and 150 μL fresh binding buffer (supplemented with 50 μM ligand of interest or DMSO) added, followed by 150 pmol protein (binding partner protein of interest) and incubated for another 60 minutes. The resin was pelleted, excess buffer removed and washed with 400 μL of binding buffer (supplemented with ligand of interest or DMSO), and this process was repeated three times. The resin was pelleted, excess buffer removed and 45 μL of binding buffer supplemented with 1 mg/mL 3xFLAG peptide was added to elute proteins over 30 minutes on a rotating wheel at room temperature. The resin was pelleted, and 40 μL of the supernatant was collected and mixed with 12 μL of 5xSDS gel loading buffer. 6 μL of these samples were applied to SDS-PAGE on a 4–20% gradient gel (Biorad). The gel was transferred to a nitrocellulose membrane using the Trans-Blot Turbo Transfer System (Biorad). Following blocking with 5% skim milk solution in TBST, primary antibodies targeting the NR proteins were added in TBST and incubated overnight at 4 °C. […]
# [6] = tested on: progesterone receptor (PGR); test: PGR reporter degradation in U937; assay type: cell-based, human; conditions: for PGR degradation, significance: R5020 vs DMSO, n = 3
# Procedure: Additional NRs that have well-characterized ligand-induced degradation include vitamin D receptor (VDR),[46] progesterone receptor (PGR),[47] and thyroid receptor beta (THRB).[7]
# as §1
# [7] = tested on: HR+ HER2- advanced breast cancer; conditions: cited from earlier work; for clinical trial outcome, phase II: second-line treatment
# Excerpt: page 11: Supplemental Table S2: Clinical Development of Selective Estrogen Receptor Degraders (SERDs), related to Figure 6 Clinical Development Status for HR+ HER2- Advanced Compound Side Chain E3 Ligase Breast Cancer Treatment Fulvestrant Long Alkyl RNF111 FDA approved for first-line and second-line treatments1,2 FDA approved for second-line, ESR1-mutated disease Elacestrant (RAD1901) Basic Amino RNF111 treatment3,4; Ongoing phase III trial for first-line treatment (NCT05512364) Ongoing Phase III trial for first-line treatment Camizestrant (AZD9833) Basic Amino RNF111 (NCT04711252, NCT0496493 ...
# [8] = tested on: ER; conditions: ref [17], [53]; cited from earlier work
# Excerpt: SERDs are a class of molecules targeting the ER for the treatment of breast cancer. […] Given that UBR5 is similarly recruited to the NR hydrophobic cleft, we hypothesized that fulvestrant and other SERDs may employ a different mechanism for ER degradation. […] One of the best understood SERDs, fulvestrant, drastically remodels the hydrophobic cleft[16],[17] in a manner incompatible with UBR5 or NCOA binding. […] Strikingly, this correlates with clinical utility, hallmarked by the wide use of fulvestrant and recent approval of elacestrant,[53] both of which employ RNF111, in contrast to UBR5 SERDs (Table S2), none of which have been approved for clinical use. The heterogeneity of ER transcriptional pro ...
# [9] = tested on: thyroid receptor beta (THRB); test: THRB reporter degradation in U937; assay type: cell-based, human; conditions: for THRB degradation, significance: T3 vs DMSO, n = 3
# Procedure: as §1
Structure (SMILES),E3 ligase used for ER degradation [2],E3 Ligase (Table S2) [2],ER reporter degradation [3],regulated class of ER degradation (RNF111 or UBR5) [4],other results
"CC1=C(/C=C/C(C)=C\C=C\C(C)=C\C(=O)O)C(C)(C)CCC1 [9-cis RA, 9-cis-retinoic acid]",,,,,binding of RARA to UBR5 [1]: robustly induced binding of RARA to UBR5
O=C1CC[C@H](N2Cc3cc(N4CCN(CC5CCN(c6ccc([C@@H]7c8ccc(O)cc8CC[C@@H]7c7ccccc7)cc6)CC5)CC4)ccc3C2=O)C(=O)N1 [ARV-471],Cereblon (CRBN),CRBN,induced ER reporter degradation,,
C[C@@H]1Cc2c([nH]c3ccccc23)[C@@H](c2c(F)cc(/C=C/C(=O)O)cc2F)N1CC(C)(C)F [AZD-9496],required UBR5 for degradation,UBR5,induced ER reporter degradation,UBR5 Regulated,
CC1(C)CC=C(c2cnc3ccccc3c2)c2cc(C(=O)Nc3ccc(C(=O)O)cc3)ccc21 [BMS614],,,,,binding of RARA to UBR5 [1]: prevented complex formation; binding of RARA/RXRA to UBR5 [5]: similarly hindered
CCN(CCCCCOCC(=O)N[C@H](C(=O)N1C[C@H](O)C[C@H]1C(=O)N[C@@H](C)c1ccc(-c2scnc2C)cc1)C(C)(C)C)CCOc1ccc(C(=O)c2c(-c3ccc(O)cc3)sc3cc(O)ccc23)cc1 [ERD-308],von Hippel-Lindau (VHL),VHL,induced ER reporter degradation,,
CC1=C(c2cccc(O)c2)[C@H](c2ccc(OCCN3CC(CF)C3)cc2)Oc2ccc(O)cc21 [GDC-0927],"employed a different E3 ligase, RNF111",RNF111,induced ER reporter degradation,,
CC(F)(F)c1cc(F)ccc1-c1sc2cc(O)ccc2c1Oc1ccc(/C=C/C(=O)O)cc1 [LSZ-102],required UBR5 for degradation,UBR5,induced ER reporter degradation,UBR5 Regulated,
CCC(=O)[C@@]1(C)CC[C@H]2[C@@H]3CCC4=CC(=O)CCC4=C3CC[C@@]21C [R5020],,,,,"PGR degradation, significance ([6]; LUC1 shRNA): *** (***p<0.0005); PGR degradation, significance ([6]; LUC2 shRNA): * (*p<0.05); PGR reporter degradation ([6]; U937, R5020): confirmed degradation; effect of UBR5 shRNAs on PGR degradation ([6]; U937, R5020): rescued degradation"
O=C(O)c1ccc2c(c1)CCCC(c1ccc(Cl)cc1Cl)=C2c1ccc(O[C@H]2CCN(CCCF)C2)cc1 [amcenestrant],"employed a different E3 ligase, RNF111",RNF111,induced ER reporter degradation,RNF111 Regulated,"clinical trial outcome, phase III ([7]; amcenestrant, first-line treatment, NCT04478266, ref 7 (supplement)): Failed primary endpoint phase III trial for first-line; clinical trial outcome, phase II ([7]; amcenestrant, NCT04059484, ref 8 (supplement)): Failed primary endpoint in"
C[C@@H]1Cc2c(ccc3[nH]ncc23)[C@@H](c2ccc(NC3CN(CCCF)C3)cn2)N1CC(F)(F)F [camizestrant],"employed a different E3 ligase, RNF111",RNF111,induced ER reporter degradation,RNF111 Regulated,"clinical trial outcome, phase II ([7]; camizestrant, NCT04214288, ref 5 (supplement)): Successful phase II trial"
CCNCCc1ccc(CN(CC)c2cc(OC)ccc2[C@@H]2CCc3cc(O)ccc3C2)cc1 [elacestrant],"employed a different E3 ligase, RNF111",RNF111,induced ER reporter degradation,RNF111 Regulated,ER degradation (literature) [8]: lead to ER degradation
C[C@@H]1Cc2c([nH]c3ccccc23)[C@@H](c2c(F)cc(NC3CN(CCCF)C3)cc2F)N1CC(F)(F)CO [giredestrant],"employed a different E3 ligase, RNF111",RNF111,induced ER reporter degradation,RNF111 Regulated,"clinical trial outcome, phase II ([7]; giredestrant, NCT04576455, ref 6 (supplement)): Failed primary endpoint in phase II trial"
"N[C@@H](Cc1cc(I)c(Oc2cc(I)c(O)c(I)c2)c(I)c1)C(=O)O [levothyroxine [T3], levothyroxine]",,,,,"THRB degradation, significance ([9]; LUC1 shRNA): ** (**p<0.005); THRB degradation, significance ([9]; LUC2 shRNA): ** (**p<0.005); THRB reporter degradation ([9]; U937, T3): confirmed degradation; UBR5 dependence of THRB degradation ([9]; U937, T3): not dependent on UBR5; THRB degradation, significance ([9]; UBR5-1 shRNA): ** (**p<0.005); THRB degradation, significance ([9]; UBR5-2 shRNA): ** (**p<0.005)"
